Test results from patent US20260070945A1, “MACROCYCLIC IMMUNOMODULATORS” (Bristol-Myers Squibb Company, priority 2022, published 2026).
*1 amine or outer side, *2 acyl side, *3 side chain or, on linkers, in order; H or OH if unused. Where a SMILES comes first, the peptide text is derived from it. Bridges are numbered along the chain shown (N, C = ends). [ ]: non-standard residue; d: D form. The star is where a group is joined. ξ: configuration not given here. Bip = N[C@@H](Cc1ccc(-c2ccccc2)cc1)C(=O)O; γGlu = O=C(O)[C@H](CCC(=O)[*:2])N[*:1]; βAsp = O=C(O)[C@H](CC(=O)[*:2])N[*:1]; aIle = CC[C@@H](C)[C@H](N)C(=O)O; 4Pal = N[C@@H](Cc1ccncc1)C(=O)O; Cha = N[C@@H](CC1CCCCC1)C(=O)O; Cit = NC(=O)NCCC[C@H](N)C(=O)O; Ile(3ξ) = CCC(C)[C@H](N)C(=O)O; Thr(3ξ) = CC(O)[C@H](N)C(=O)O; Carboxymethyl = O=C(O)C*; NMeA = CN[C@@H](C)C(=O)O; Orn = NCCC[C@H](N)C(=O)O; Aun = NCCCCCCCCCCC(=O)O; Dab = NCC[C@H](N)C(=O)O; AEEA = NCCOCCOCC(=O)O

Target: T1, PD-1/PD-L1 interaction (PE-labeled human PD-L1-Ig binding to Jurkat cell line over-expressing human PD-1) (Homo sapiens, UniProt Q15116)
T1 construct: expressed in transfected cells; host or cells: Jurkat
T1 sequence (Q15116 25-288): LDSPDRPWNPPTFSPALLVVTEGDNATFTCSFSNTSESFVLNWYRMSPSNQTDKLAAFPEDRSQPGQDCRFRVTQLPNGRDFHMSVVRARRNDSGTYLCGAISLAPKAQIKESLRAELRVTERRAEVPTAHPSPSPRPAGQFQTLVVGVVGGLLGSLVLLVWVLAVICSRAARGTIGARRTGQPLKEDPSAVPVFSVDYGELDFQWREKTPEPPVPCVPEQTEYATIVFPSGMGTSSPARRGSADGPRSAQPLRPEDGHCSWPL
Test: Jurkat-PD-1 Cell Binding High-Content Screening Assay (CBA)
Details: Jurkat-hPD-1 cells, PE-labeled PD-L1-Ig 20 nM final; read-out: Jurkat HPD1 PDL1 IC50
How it was run: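 Jurkat cells overexpressing human PD-1 (8×10^3/well, DMEM + 10% FCS) preincubated with compound 2 h at 37 °C, then PE-labelled human PD-L1-Ig (20 nM final) for 1 h. Cells fixed in paraformaldehyde with Hoechst 33342; bound PD-L1 quantified by high-content imaging.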

| SMILES | IC50 |
| --- | --- |
| CC[C@@H](C)[C@@H]1NC(=O)[C@H](Cc2ccc(-c3ccccc3)cc2)NC(=O)[C@H](C(C)C)NC(=O)[C@H](Cc2c[nH]c3ccccc23)NC(=O)[C@H](CC(=O)O)NC(=O)[C@H](Cc2ccc(O)cc2)NC(=O)[C@H](Cc2ccncc2)NC(=O)CSC[C@@H](C(=O)N[C@H](CCCCN)C(=O)NCCOCCOCC(=O)NCCCCCCCCCCC(=O)O)NC(=O)[C@H](CO)NC(=O)[C@H](C(C)C)NC(=O)[C@H](CC2CCCCC2)NC(=O)[C@H](CCN)NC(=O)[C@@H](CC(C)C)NC(=O)[C@H](C)N(C)C1=O [Example 2023] ({CH2CO}-[4Pal]YDWV[Bip][aIle][NMeA][dL][Dab][Cha]VSC[dK][AEEA][Aun]-OH; thioether N-14) | 47.4 nM |
| CC[C@@H](C)[C@@H]1NC(=O)[C@H](Cc2ccc(-c3ccccc3)cc2)NC(=O)[C@H](C(C)C)NC(=O)[C@H](Cc2c[nH]c3ccccc23)NC(=O)[C@H](CC(=O)O)NC(=O)[C@H](Cc2ccc(OCC(=O)O)cc2)NC(=O)[C@H](CCCNC(N)=O)NC(=O)CSC[C@@H](C(=O)N[C@H](CC(N)=O)C(=O)NCCOCCOCC(=O)N[C@@H](CCC(=O)NCCOCCOCC(=O)N[C@@H](CCC(=O)NCCOCCOCC(=O)N[C@@H](CCCN)C(=O)NCCCCCCCCCCC(=O)O)C(=O)O)C(=O)O)NC(=O)[C@H](CO)NC(=O)[C@H](C(C)C)NC(=O)[C@H](CC2CCCCC2)NC(=O)[C@H](CC(N)=O)NC(=O)[C@@H](CC(C)C)NC(=O)[C@H](C)N(C)C1=O [Example 2024] ({CH2CO}-[Cit]Y(Carboxymethyl)DWV[Bip][aIle][NMeA][dL]N[Cha]VSC[dN][AEEA][γGlu][AEEA][γGlu][AEEA][Orn][Aun]-OH; thioether N-14) | 38.3 nM |
| CC[C@@H](C)[C@@H]1NC(=O)[C@H](Cc2ccc(-c3ccccc3)cc2)NC(=O)[C@H](C(C)C)NC(=O)[C@H](Cc2c[nH]c3ccccc23)NC(=O)[C@H](CC(=O)O)NC(=O)[C@H](Cc2ccc(O)cc2)NC(=O)[C@H](CCCNC(N)=O)NC(=O)CSC[C@@H](C(=O)N[C@H](CC(N)=O)C(=O)NCCOCCOCC(=O)N[C@@H](CCC(=O)NCCOCCOCC(=O)N[C@@H](CCC(=O)NCCOCCOCC(=O)N[C@@H](CCCN)C(=O)NCCCCCCCCCCC(=O)O)C(=O)O)C(=O)O)NC(=O)[C@H](CO)NC(=O)[C@H](C(C)C)NC(=O)[C@H](CC2CCCCC2)NC(=O)[C@H](CC(N)=O)NC(=O)[C@@H](CC(C)C)NC(=O)[C@H](C)N(C)C1=O [Example 2025] ({CH2CO}-[Cit]YDWV[Bip][aIle][NMeA][dL]N[Cha]VSC[dN][AEEA][γGlu][AEEA][γGlu][AEEA][Orn][Aun]-OH; thioether N-14) | 49.8 nM |
| CC(C)C[C@@H]1NC(=O)[C@H](Cc2c[nH]c3ccccc23)NC(=O)[C@H](CC(=O)O)NC(=O)[C@H](Cc2ccc(OCC(=O)O)cc2)NC(=O)[C@H](CCCNC(N)=O)NC(=O)CSC[C@@H](C(=O)N[C@@H](CC(N)=O)C(=O)N[C@@H](CC(=O)NCCOCCOCC(=O)NCCCCCCCCCCC(=O)O)C(=O)O)NC(=O)[C@H](CO)NC(=O)[C@H](C(C)C)NC(=O)[C@H](CC2CCCCC2)NC(=O)[C@H](CC(N)=O)NC(=O)[C@@H](CC(C)C)NC(=O)[C@H](C)N(C)C(=O)[C@H](C(C)C)NC(=O)[C@H](Cc2ccc(-c3ccccc3)cc2)NC1=O [Example 2026] ({CH2CO}-[Cit]Y(Carboxymethyl)DWL[Bip]V[NMeA][dL]N[Cha]VSCN[βAsp][AEEA][Aun]-OH; thioether N-14) | 237 nM |
| CC[C@@H](C)[C@@H]1NC(=O)[C@H](Cc2ccc(-c3ccccc3)cc2)NC(=O)[C@H](C(C)C)NC(=O)[C@H](Cc2c[nH]c3ccccc23)NC(=O)[C@H](CC(=O)O)NC(=O)[C@H](Cc2ccc(O)cc2)NC(=O)[C@H](CCCNC(N)=O)NC(=O)CSC[C@@H](C(=O)N[C@H](CCCCN)C(=O)NCCOCCOCC(=O)NCCCCCCCCCCC(=O)O)NC(=O)[C@H](CO)NC(=O)[C@H](C(C)C)NC(=O)[C@H](CC2CCCCC2)NC(=O)[C@H](CCN)NC(=O)[C@@H](CC(C)C)NC(=O)[C@H](C)N(C)C1=O [Example 2027] ({CH2CO}-[Cit]YDWV[Bip][aIle][NMeA][dL][Dab][Cha]VSC[dK][AEEA][Aun]-OH; thioether N-14) | 38.6 nM |
| CCC(C)[C@@H]1NC(=O)[C@H](Cc2ccc(-c3ccccc3)cc2)NC(=O)[C@H](C(C)C)NC(=O)[C@H](Cc2c[nH]c3ccccc23)NC(=O)[C@H](CC(=O)O)NC(=O)[C@H](Cc2ccc(OCC(=O)O)cc2)NC(=O)[C@H](Cc2ccncc2)NC(=O)CSC[C@@H](C(=O)N[C@H](CC(N)=O)C(=O)NCCOCCOCC(=O)NCCCCCCCCCCC(=O)O)NC(=O)[C@H](CO)NC(=O)[C@H](C(C)C)NC(=O)[C@H](CC2CCCCC2)NC(=O)[C@H](CCN)NC(=O)[C@@H](CC(C)C)NC(=O)[C@H](C)N(C)C1=O (stereo partly drawn) [Example 2028] ({CH2CO}-[4Pal]Y(Carboxymethyl)DWV[Bip][Ile(3ξ)][NMeA][dL][Dab][Cha]VSC[dN][AEEA][Aun]-OH; thioether N-14) | 9.9 nM |
| CCC(C)[C@@H]1NC(=O)[C@H](Cc2ccc(-c3ccccc3)cc2)NC(=O)[C@H](C(C)C)NC(=O)[C@H](Cc2c[nH]c3ccccc23)NC(=O)[C@H](CC(=O)O)NC(=O)[C@H](Cc2ccc(OCC(=O)O)cc2)NC(=O)[C@H](C(C)O)NC(=O)CSC[C@@H](C(=O)NCCOCCOCC(=O)N[C@@H](CCCCN)C(=O)NCCCCCCCCCCC(=O)O)NC(=O)[C@H](CO)NC(=O)[C@H](C(C)C)NC(=O)[C@H](CC2CCCCC2)NC(=O)[C@H](CCN)NC(=O)[C@@H](CC(C)C)NC(=O)[C@H](C)N(C)C1=O (stereo partly drawn) [Example 2030] ({CH2CO}-[Thr(3ξ)]Y(Carboxymethyl)DWV[Bip][Ile(3ξ)][NMeA][dL][Dab][Cha]VSC[AEEA]K[Aun]-OH; thioether N-14) | 13.2 nM |
| CCC(C)[C@@H]1NC(=O)[C@H](Cc2ccc(-c3ccccc3)cc2)NC(=O)[C@H](C(C)C)NC(=O)[C@H](Cc2c[nH]c3ccccc23)NC(=O)[C@H](CC(=O)O)NC(=O)[C@H](Cc2ccc(OCC(=O)O)cc2)NC(=O)[C@H](C(C)O)NC(=O)CSC[C@@H](C(=O)N[C@H](CC(N)=O)C(=O)NCCOCCOCC(=O)NCCCCCCCCCCC(=O)O)NC(=O)[C@H](CO)NC(=O)[C@H](C(C)C)NC(=O)[C@H](CC2CCCCC2)NC(=O)[C@H](CCN)NC(=O)[C@@H](CC(C)C)NC(=O)[C@H](C)N(C)C1=O (stereo partly drawn) [Example 2031] ({CH2CO}-[Thr(3ξ)]Y(Carboxymethyl)DWV[Bip][Ile(3ξ)][NMeA][dL][Dab][Cha]VSC[dN][AEEA][Aun]-OH; thioether N-14) | 9.4 nM |
| CCC(C)[C@@H]1NC(=O)[C@H](Cc2ccc(-c3ccccc3)cc2)NC(=O)[C@H](C(C)C)NC(=O)[C@H](Cc2c[nH]c3ccccc23)NC(=O)[C@H](CC(=O)O)NC(=O)[C@H](Cc2ccc(OCC(=O)O)cc2)NC(=O)[C@H](Cc2c[nH]cn2)NC(=O)CSC[C@@H](C(=O)NCCOCCOCC(=O)N[C@@H](CCC(=O)NCCOCCOCC(=O)N[C@@H](CCCCN)C(=O)NCCCCCCCCCCC(=O)O)C(=O)O)NC(=O)[C@H](CO)NC(=O)[C@H](C(C)C)NC(=O)[C@H](CC2CCCCC2)NC(=O)[C@H](CCN)NC(=O)[C@@H](CC(C)C)NC(=O)[C@H](C)N(C)C1=O (stereo partly drawn) [Example 2032] ({CH2CO}-HY(Carboxymethyl)DWV[Bip][Ile(3ξ)][NMeA][dL][Dab][Cha]VSC[AEEA][γGlu][AEEA]K[Aun]-OH; thioether N-14) | 10.4 nM |
